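Step 1: Grow cells in 96-well plates. Step 2: Expose to compound for 48 hours at 5 concentrations. Step 3: Interpolate endpoints linearly; if unreached, use highest concentration. GI50: concentration for 50% inhibition of growth.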 Activity calls are given as the source filed them. Rule as the data show it: active = GI50 up to about 1.1 µM and inactive = higher.
How the values were obtained:
Experiment in all cases: NCI tumour cell line growth inhibition, 48 h
K562 = tested on: K562
OVCAR-4 = tested on: OVCAR-4
OVCAR-8 = tested on: OVCAR-8
A549 = tested on: A549
ACHN = tested on: ACHN
DMS-273 = tested on: DMS-273
RPMI-8226 = tested on: RPMI-8226
HCT-15 = tested on: HCT-15
SN12C = tested on: SN12C
HCC 2998 = tested on: HCC 2998
NCI-H226 = tested on: NCI-H226
KM12 = tested on: KM12
HOP-92 = tested on: HOP-92
SK-OV-3 = tested on: SK-OV-3
SF-539 = tested on: SF-539
SK-MEL-5 = tested on: SK-MEL-5
UACC-257 = tested on: UACC-257

| Compound | GI50 (K562) | GI50 (OVCAR-4) | GI50 (OVCAR-8) | GI50 (A549) | GI50 (ACHN) | GI50 (DMS-273) | GI50 (RPMI-8226) | GI50 (HCT-15) [µM] | GI50 (SN12C) | GI50 (HCC 2998) | GI50 (NCI-H226) | GI50 (KM12) | GI50 (HOP-92) | GI50 (SK-OV-3) | GI50 (SF-539) | GI50 (SK-MEL-5) | GI50 (UACC-257) |
| --- | --- | --- | --- | --- | --- | --- | --- | --- | --- | --- | --- | --- | --- | --- | --- | --- | --- |
| CNC(=O)OCc1c2ccncc2c(C)c2c1[nH]c1ccc(OC)cc12 | 0.322 µM (active) | 0.256 µM (active) | 0.209 µM (active) | 0.39 µM (active) | 0.193 µM (active) | 0.379 µM (active) | 0.183 µM (active) | 0.495 | 0.678 µM (active) | 0.29 µM (active) | 0.179 µM (active) | 0.573 µM (active) | 0.187 µM (active) | 0.212 µM (active) | 0.154 µM (active) |  |  |
| O=C(/C=C/c1ccccc1)/C=C/c1ccccc1 | 28.8 µM (inactive) | 22.1 µM (inactive) |  | > 100 µM (inactive) | 18.9 µM (inactive) | 38.7 µM (inactive) | 39.3 µM (inactive) | 23.6 | 20.4 µM (inactive) | 37.8 µM (inactive) | > 100 µM (inactive) | 18 µM (inactive) | 34.8 µM (inactive) | 43 µM (inactive) | 19.5 µM (inactive) | 33.1 µM (inactive) | 24.4 µM (inactive) |
| CNS(=O)(=O)NNS(=O)(=O)c1ccccc1 | > 100 µM (inactive) |  | > 100 µM (inactive) | > 100 µM (inactive) | > 100 µM (inactive) | > 100 µM (inactive) | > 100 µM (inactive) | > 100 | > 100 µM (inactive) | > 100 µM (inactive) | > 100 µM (inactive) | > 100 µM (inactive) | > 100 µM (inactive) | > 100 µM (inactive) | > 100 µM (inactive) | > 100 µM (inactive) | > 100 µM (inactive) |
| C[Si](C)(C)OC1CC(=O)OC1n1cc(F)c(=O)[nH]c1=O (stereo unspecified) | 26.4 µM (inactive) | > 28.4 µM (inactive) | 31.8 µM (inactive) | 4.38 µM (inactive) | 11.7 µM (inactive) | 12.9 µM (inactive) | 3.14 µM (inactive) | 9.44 | 40 µM (inactive) | 0.759 µM (active) | > 86.9 µM (inactive) | 18.1 µM (inactive) |  | > 95.7 µM (inactive) | 2.58 µM (inactive) | > 100 µM (inactive) | > 64.3 µM (inactive) |
| Cc1nc2c(s/c(=N\N)n2-c2ccccc2)c(=O)n1C | > 100 µM (inactive) | > 100 µM (inactive) | > 100 µM (inactive) | > 100 µM (inactive) | > 100 µM (inactive) | > 100 µM (inactive) | > 100 µM (inactive) | > 100 | > 100 µM (inactive) | > 100 µM (inactive) | > 100 µM (inactive) | 80.2 µM (inactive) | > 100 µM (inactive) | > 100 µM (inactive) | > 100 µM (inactive) | > 100 µM (inactive) | > 100 µM (inactive) |
| C/C=C1\CN2CCc3c([nH]c4ccccc34)C2C=C1CCO (stereo unspecified) | > 340 µM (inactive) |  | > 340 µM (inactive) | > 340 µM (inactive) | > 340 µM (inactive) | > 340 µM (inactive) | > 340 µM (inactive) | > 340 | > 340 µM (inactive) | > 340 µM (inactive) | > 340 µM (inactive) | > 340 µM (inactive) | > 340 µM (inactive) | > 340 µM (inactive) | > 340 µM (inactive) | > 340 µM (inactive) | > 340 µM (inactive) |
| O=C1C(=O)C(Br)(Br)C(Br)=C1Br | 20 µM (inactive) | 22.4 µM (inactive) | 17.3 µM (inactive) | 37.4 µM (inactive) | 15.9 µM (inactive) | 22.3 µM (inactive) | 22.3 µM (inactive) | 19.8 | 23.7 µM (inactive) | 20.5 µM (inactive) |  | 12.9 µM (inactive) | 14 µM (inactive) | > 100 µM (inactive) | 19 µM (inactive) | 15.4 µM (inactive) | 20.3 µM (inactive) |
| Cc1ccc(C)c(N2C(=O)C(=O)C(c3nc4ccccc4s3)/C(=N\c3cccc4c(=O)[nH][nH]c(=O)c34)C2=O)c1 (stereo unspecified) | > 100 µM (inactive) | 88.5 µM (inactive) | > 100 µM (inactive) | > 100 µM (inactive) | > 100 µM (inactive) | > 100 µM (inactive) | > 100 µM (inactive) | > 100 | > 100 µM (inactive) | > 100 µM (inactive) | > 100 µM (inactive) | > 100 µM (inactive) | > 100 µM (inactive) | > 100 µM (inactive) | 91.8 µM (inactive) | > 100 µM (inactive) | > 100 µM (inactive) |
| C=C(CCCCC)CN1CCCC1[C@@](C)(O)CC(=O)OCC (stereo partly specified) | > 100 µM (inactive) | > 100 µM (inactive) | > 100 µM (inactive) | > 100 µM (inactive) | > 100 µM (inactive) | > 100 µM (inactive) | > 100 µM (inactive) | > 100 | > 100 µM (inactive) | > 100 µM (inactive) | > 100 µM (inactive) | > 100 µM (inactive) | > 100 µM (inactive) | > 100 µM (inactive) | > 100 µM (inactive) | > 100 µM (inactive) | > 100 µM (inactive) |
| Cc1ccc(NC(=O)COC(=O)c2cccc3c(=O)c4ccccc4[nH]c23)cc1 | 32.7 µM (inactive) | 48.3 µM (inactive) | 35.3 µM (inactive) | 36.6 µM (inactive) | 27 µM (inactive) | 23.6 µM (inactive) | 87.7 µM (inactive) |  | 32.1 µM (inactive) | 37.6 µM (inactive) | 26.5 µM (inactive) | 22.1 µM (inactive) | 82.8 µM (inactive) | 25.5 µM (inactive) | 22.9 µM (inactive) | 21.6 µM (inactive) | 39.9 µM (inactive) |
| O=C(OCCOCCOC(=O)c1c[nH]cc1-c1ccccc1)c1c[nH]cc1-c1ccccc1 | 28.9 µM (inactive) | 18.3 µM (inactive) | 29.4 µM (inactive) | 22.2 µM (inactive) |  | 15.9 µM (inactive) | 15 µM (inactive) | 19.2 | 18.1 µM (inactive) | 21.9 µM (inactive) | 19.2 µM (inactive) | 20.2 µM (inactive) | 20.3 µM (inactive) | 35.1 µM (inactive) | 17.9 µM (inactive) | 16.8 µM (inactive) | 18.7 µM (inactive) |
| CC1(C(=O)NCCN(CCNC(=O)C2(C)CC3(C)CC(C)(C2)C(=O)NC3=O)CCNC(=O)C2(C)CC3(C)CC(C)(C2)C(=O)NC3=O)CC2(C)CC(C)(C1)C(=O)NC2=O (stereo unspecified) | > 100 µM (inactive) | > 100 µM (inactive) | > 100 µM (inactive) | > 100 µM (inactive) | > 100 µM (inactive) | > 100 µM (inactive) | > 100 µM (inactive) | > 100 | > 100 µM (inactive) | > 100 µM (inactive) |  | > 100 µM (inactive) | < 0.01 µM (active) | > 100 µM (inactive) | > 100 µM (inactive) |  | > 100 µM (inactive) |
| N#CNc1nc(N)c(-c2ccc(Cl)cc2)c(C(=O)Nc2nccs2)n1 | > 100 µM (inactive) | > 100 µM (inactive) | > 100 µM (inactive) | > 100 µM (inactive) | > 100 µM (inactive) | > 100 µM (inactive) | > 100 µM (inactive) | > 100 | > 100 µM (inactive) | > 100 µM (inactive) | > 100 µM (inactive) | > 100 µM (inactive) | > 100 µM (inactive) |  | > 100 µM (inactive) | > 100 µM (inactive) | > 100 µM (inactive) |
| NS(=O)(=O)c1ccc(NC(=O)c2cccc3c(Nc4ccc(S(N)(=O)=O)cc4)c4ccccc4nc23)cc1 | 11.3 µM (inactive) | 22.4 µM (inactive) | 48.5 µM (inactive) | > 100 µM (inactive) | > 100 µM (inactive) | 1.85 µM (inactive) | 9.25 µM (inactive) | 37.3 | 31.8 µM (inactive) |  |  | 4.47 µM (inactive) | 33.8 µM (inactive) | > 100 µM (inactive) | 20.8 µM (inactive) | 41.2 µM (inactive) | 32.9 µM (inactive) |
| CC(=O)n1c2ccccc2c2nc3nc(Oc4ccc(C)cc4)c4ccccc4c3cc21 | > 100 µM (inactive) | 29.4 µM (inactive) | > 100 µM (inactive) | > 100 µM (inactive) | > 100 µM (inactive) | > 100 µM (inactive) | > 100 µM (inactive) | > 100 | > 100 µM (inactive) | > 100 µM (inactive) | > 100 µM (inactive) | > 100 µM (inactive) |  | > 100 µM (inactive) | > 100 µM (inactive) | > 100 µM (inactive) | > 100 µM (inactive) |
| COC(=O)/C(=N\NC(C)(C)C)C(C(=O)OC)C(=O)C(=O)Nc1cc(Cl)ccc1Cl (stereo unspecified) | > 100 µM (inactive) | > 100 µM (inactive) | > 100 µM (inactive) | > 100 µM (inactive) | > 100 µM (inactive) | > 100 µM (inactive) |  | > 100 | > 100 µM (inactive) | > 100 µM (inactive) | > 100 µM (inactive) | > 100 µM (inactive) | > 100 µM (inactive) | > 100 µM (inactive) | > 100 µM (inactive) | > 100 µM (inactive) | > 100 µM (inactive) |
| COC(=O)c1ccc(Cl)cc1NC(=O)C1CCCCC1 | > 100 µM (inactive) | > 100 µM (inactive) | > 100 µM (inactive) | > 100 µM (inactive) | > 100 µM (inactive) | > 100 µM (inactive) | > 100 µM (inactive) | > 100 | > 100 µM (inactive) | > 100 µM (inactive) | > 100 µM (inactive) | > 100 µM (inactive) | > 100 µM (inactive) |  | > 100 µM (inactive) |  | > 100 µM (inactive) |

Source: ChEMBL document CHEMBL1201862, “PubChem BioAssay data set” (2004)
